In US20100075965A1, “PI3 KINASE INHIBITORS AND METHODS OF THEIR USE” (Novartis AG, priority 2006, published 2010):
pEC50, pIC50: −log10 of the molar value.

Experiments:
[1] = test system: pSer473-Akt in A2780 cells; test: pSer473 Akt assay to monitor PI3K pathway in A2780 cells (MSD); assay type: cell-based; conditions: Homo sapiens; A2780 cells; read-out: A2780 pAKT 473 EC50
How it was run: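 A2780 cells (15,000/well, adhered overnight) treated 1 h at 37 °C with compound, then lysed; pSer473-Akt and total Akt measured by MSD electrochemiluminescence. The pSer473/total Akt ratio gave percent inhibition versus DMSO, from which EC50 was derived.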

PI3 K Alpha = PI3 K Alpha (Homo sapiens, UniProt P42336); test: PI3 kinase phosphorylation assays (homogenous solution phase, one step solid phase, ATP depletion/KinaseGlo); assay type: biochemical; conditions: read-out: PI3K Alpha IC50
A2780 cells = test: Viability assay in A2780 (Cell Titer Glo); assay type: cell-based, human; conditions: Homo sapiens; A2780 cells; read-out: A2780 Cell prolif. EC50
How it was run: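 A2780 cells (1,000/well, DMEM + 10% FBS) were exposed to 3-fold serial dilutions of compound for 72 hrs at 37° C, 5% CO2. Viable cells were read by Cell Titer Glo luminescence, in duplicate, and EC50 values were derived from the curves.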

Sequence of PI3 K Alpha (P42336 whole entry): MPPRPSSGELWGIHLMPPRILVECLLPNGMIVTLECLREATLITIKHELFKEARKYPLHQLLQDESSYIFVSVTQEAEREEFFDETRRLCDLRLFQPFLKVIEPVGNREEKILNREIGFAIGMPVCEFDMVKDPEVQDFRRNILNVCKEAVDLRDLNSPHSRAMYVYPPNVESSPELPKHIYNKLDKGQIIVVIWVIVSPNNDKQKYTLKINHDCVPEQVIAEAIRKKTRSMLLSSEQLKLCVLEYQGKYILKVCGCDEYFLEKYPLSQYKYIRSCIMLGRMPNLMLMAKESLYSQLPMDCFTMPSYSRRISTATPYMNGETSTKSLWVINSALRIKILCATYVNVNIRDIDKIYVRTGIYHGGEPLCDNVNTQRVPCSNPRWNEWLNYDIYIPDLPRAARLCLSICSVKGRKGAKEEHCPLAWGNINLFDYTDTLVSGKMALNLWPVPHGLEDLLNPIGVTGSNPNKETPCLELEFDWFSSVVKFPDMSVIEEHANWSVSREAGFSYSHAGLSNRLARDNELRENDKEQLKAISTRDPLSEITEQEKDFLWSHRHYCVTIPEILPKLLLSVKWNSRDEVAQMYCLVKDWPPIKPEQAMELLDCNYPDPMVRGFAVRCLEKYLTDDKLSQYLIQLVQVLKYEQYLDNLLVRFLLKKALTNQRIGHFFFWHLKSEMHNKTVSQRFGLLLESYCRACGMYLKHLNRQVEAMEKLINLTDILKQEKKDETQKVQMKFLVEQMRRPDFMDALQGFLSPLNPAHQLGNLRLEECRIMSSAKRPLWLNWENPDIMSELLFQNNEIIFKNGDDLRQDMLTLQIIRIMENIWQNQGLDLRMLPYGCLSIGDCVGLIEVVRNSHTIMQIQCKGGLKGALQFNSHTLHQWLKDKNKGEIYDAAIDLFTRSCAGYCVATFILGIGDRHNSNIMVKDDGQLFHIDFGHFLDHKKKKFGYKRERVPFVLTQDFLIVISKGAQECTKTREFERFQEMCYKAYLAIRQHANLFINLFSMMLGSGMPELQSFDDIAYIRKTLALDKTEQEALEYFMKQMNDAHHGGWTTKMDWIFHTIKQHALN
Sequence of PI3 K Alpha (P27986 whole entry partner): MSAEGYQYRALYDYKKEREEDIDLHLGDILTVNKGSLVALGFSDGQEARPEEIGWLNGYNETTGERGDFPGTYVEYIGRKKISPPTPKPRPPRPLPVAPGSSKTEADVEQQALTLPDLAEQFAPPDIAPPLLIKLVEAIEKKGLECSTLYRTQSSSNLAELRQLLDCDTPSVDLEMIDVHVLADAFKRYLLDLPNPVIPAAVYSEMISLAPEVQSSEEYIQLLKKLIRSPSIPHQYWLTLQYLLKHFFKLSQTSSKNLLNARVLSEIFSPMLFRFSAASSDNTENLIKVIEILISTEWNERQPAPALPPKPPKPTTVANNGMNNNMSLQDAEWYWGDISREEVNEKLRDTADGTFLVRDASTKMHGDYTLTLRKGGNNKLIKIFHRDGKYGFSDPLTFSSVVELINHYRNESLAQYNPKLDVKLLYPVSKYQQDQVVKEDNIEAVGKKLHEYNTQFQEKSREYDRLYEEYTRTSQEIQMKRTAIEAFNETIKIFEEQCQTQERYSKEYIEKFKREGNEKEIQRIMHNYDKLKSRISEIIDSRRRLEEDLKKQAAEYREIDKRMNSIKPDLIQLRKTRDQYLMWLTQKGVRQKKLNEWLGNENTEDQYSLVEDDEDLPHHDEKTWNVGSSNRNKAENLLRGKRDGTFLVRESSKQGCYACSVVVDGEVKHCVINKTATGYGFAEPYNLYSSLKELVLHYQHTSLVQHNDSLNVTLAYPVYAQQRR

Row | Structure (SMILES) | pEC50 [1] | pIC50 (PI3 K Alpha) | pEC50 (A2780 cells)
1 | Nc1ncc(-c2ccc3nc(NC(=O)CCCN4CCOCC4)cn3n2)cc1C(F)(F)F [Example 108, N-(6-(6-amino-5-(trifluoromethyl)pyridin-3-yl)imidazo[1,2-b]pyridazin-2-yl)-4-morpholino-butanamide] | > 6.00 | > 6.00 | > 6.00
2 | Nc1ncc(-c2ccc3nc(NC(=O)Cc4cccc5ccccc45)cn3c2)cc1C(F)(F)F [Example 110, N-(6-(6-amino-5-(trifluoromethyl)pyridin-3-yl)imidazo[1,2-a]pyridin-2-yl)-2-(naphthalen-1-yl)acetamide] | > 6.00 | > 6.00 | > 6.00
3 | CC(=O)Nc1cn2cc(-c3cnc(N)c(-c4ccccc4)n3)ccc2n1 [Example 113, N-(6-(5-amino-6-phenylpyrazin-2-yl)imidazo[1,2-a]pyridin-2-yl)acetamide] | > 6.00 | > 6.00 | > 5.00
4 | CC(=O)Nc1cn2cc(-c3cnc(N)c(-c4ccccc4F)c3)ccc2n1 [Example 114, N-(6-(6-amino-5-(2-fluorophenyl)pyridin-3-yl)imidazo[1,2-a]pyridin-2-yl)acetamide] | > 6.00 | > 6.00 | > 5.00
5 | CC(=O)Nc1cn2nc(-c3cnc(N)c(-c4ccccc4Oc4ccccc4)c3)ccc2n1 [Example 115, N-(6-(6-amino-5-(2-phenoxyphenyl)pyridin-3-yl)imidazo[1,2-b]pyridazin-2-yl)acetamide] | > 6.00 | > 6.00 | > 5.00
6 | Nc1ncc(-c2ccc3nc(NC(=O)C4CNC4)cn3n2)cc1C(F)(F)F [Example 116, N-(6-(6-amino-5-(trifluoromethyl)pyridin-3-yl)imidazo[1,2 b]pyridazin-2-yl)azetidine-3-carboxamide] | > 6.00 | > 6.00 | > 5.00
7 | COc1ccc(C#Cc2c(NC(C)=O)nc3ccc(-c4cnc(N)c(C(F)(F)F)c4)cn23)cc1 [Example 117, N-(6-(6-amino-5-(trifluoromethyl)pyridin-3-yl)-3-((4-methoxyphenyl)ethynyl)imidazo[1,2-a]pyridin-2-yl)acetamide] | > 6.00 | > 6.00 | > 5.00
8 | CCOCC(=O)Nc1cn2nc(-c3cnc(N)c(C(F)(F)F)c3)ccc2n1 [Example 118, N-(6-(6-amino-5-(trifluoromethyl)pyridin-3-yl)imidazo[1,2-b]pyridazin-2-yl)-2-ethoxyacetamide] | > 6.00 | > 6.00 | > 5.00
9 | CC(=O)Nc1cn2cc(-c3cnc(N)c(-c4ccccc4C(F)(F)F)c3)ccc2n1 [Example 120, N-(6-(6-amino-5-(2-(trifluoromethyl)phenyl)pyridin-3-yl)imidazo[1,2-a]pyridin-2-yl)acetamide] | > 6.00 | > 6.00 | > 5.00
10 | CC(=O)Nc1cn2cc(-c3cnc(N)c(-c4ccccc4OC(F)(F)F)c3)ccc2n1 [Example 121, N-(6-(6-amino-5-(2-(trifluoromethoxy)phenyl)pyridin-3-yl)imidazo[1,2-a]pyridin-2-yl)acetamide] | > 6.00 | > 6.00 | > 5.00
11 | CNCC(=O)Nc1cn2cc(-c3cnc(N)c(OCCOC)n3)ccc2n1 [Example 122, N-(6-(5-amino-6-(2-methoxyethoxy)pyrazin-2-yl)imidazo[1,2-a]pyridin-2-yl)-2-(methylamino) acetamide] | > 6.00 | > 6.00 | > 5.00
12 | Nc1ncc(-c2ccc3nc(NC(=O)c4cccnc4)cn3c2)cc1C(F)(F)F [Example 123, N-(6-(6-amino-5-(trifluoromethyl)pyridin-3-yl)imidazo[1,2-a]pyridin-2-yl)nicotinamide] | > 6.00 | > 6.00 | > 5.00
13 | CC(=O)Nc1cn2cc(-c3cnc(N)c(-c4ccccc4)c3)ccc2n1 [Example 124, N-(6-(6-amino-5-phenylpyridin-3-yl)imidazo[1,2-a]pyridin-2-yl)acetamide] | > 6.00 | > 6.00 | > 5.00
14 | Nc1ncc(-c2ccc3nc(NC(=O)c4ccc(N5CCNCC5)nc4)cn3c2)cc1C(F)(F)F [Example 126, N-(6-(6-amino-5-(trifluoromethyl)pyridin-3-yl)imidazo[1,2-a]pyridin-2-yl)-6-(piperazin-1-yl)nicotinamide] | > 6.00 | > 6.00 | > 5.00
15 | CC(=O)Nc1nc2ccc(-c3cnc(N)c(C(F)(F)F)c3)cn2c1C#Cc1ccc(C)cc1 [Example 127, N-(6-(6-amino-5-(trifluoromethyl)pyridin-3-yl)-3-(p-tolylethynyl)imidazo[1,2-a]pyridin-2-yl)acetamide] | > 6.00 | > 6.00 | > 5.00
16 | CC(=O)Nc1cn2cc(-c3cnc(N)c(OC4CN(C(=O)c5ccccc5)C4)n3)ccc2n1 [Example 128, N-(6-(5-amino-6-(1-benzoylazetidin-3-yloxy)pyrazin-2-yl)imidazo[1,2-a]pyridin-2-yl)acetamide] | > 6.00 | > 6.00 | > 5.00

Row | Structure (SMILES) | pEC50 [1] | pIC50 (PI3 K Alpha) | pEC50 (A2780 cells)
17 | COc1nc(-c2ccc3nc(NC(C)=O)cn3n2)cnc1N [Example 130, N-(6-(5-amino-6-methoxypyrazin-2-yl)imidazo[1,2-b]pyridazin-2-yl)acetamide] | > 6.00 | > 6.00 | > 5.00
18 | CC(=O)Nc1cn2cc(-c3cnc(N)c(N4CCN(C)CC4)n3)ccc2n1 [Example 131, N-(6-(5-amino-6-(4-methylpiperazin-1-yl)pyrazin-2-yl)imidazo[1,2-a]pyridin-2-yl)acetamide] | > 6.00 | > 6.00 | > 5.00
19 | COC(=O)CCCC(=O)Nc1cn2nc(-c3cnc(N)c(C(F)(F)F)c3)ccc2n1 [Example 132, methyl 5-(6-(6-amino-5-(trifluoromethyl)pyridin-3-yl)imidazo[1,2-b]pyridazin-2-ylamino)-5-oxopentanoate] | > 6.00 | > 6.00 | > 5.00
20 | Nc1ncc(-c2ccc3nc(NC(=O)CN4CCCCC4)cn3n2)cc1C(F)(F)F [Example 133, N-(6-(6-amino-5-(trifluoromethyl)pyridin-3-yl)imidazo[1,2-b]pyridazin-2-yl)-2-(piperidin-1-yl)acetamide] | > 6.00 | > 6.00 | > 5.00
21 | CC(C)(C)OC(=O)NCC(=O)Nc1cn2nc(-c3cnc(N)c(C(F)(F)F)c3)ccc2n1 [Example 135, tert-butyl 2-(6-(6-amino-5-(trifluoromethyl)pyridin-3-yl)imidazo[1,2-b]pyridazin-2-ylamino)-2-oxoethylcarbamate] | > 6.00 | > 6.00 | > 5.00
22 | CC(=O)Nc1cn2nc(-c3cnc(N)c(C(=O)O)c3)ccc2n1 [Example 136, 5-(2-acetamido-imidazo[1,2-b]pyridazin-6-yl)-2-aminonicotinic acid] | > 4.60 | > 6.00 | > 4.60
23 | CCOc1nc(-c2ccc3nc(NC(C)=O)cn3n2)cnc1N [Example 184, N-(6-(5-amino-6-ethoxypyrazin-2-yl)imidazo[1,2-b]pyridazin-2-yl)acetamide] | > 6.00 | > 6.00 | > 5.00
24 | Nc1ncc(-c2ccc3nc(NC(=O)c4ccc(-n5ccnc5)cc4)cn3c2)cc1C(F)(F)F [Example 187, N-(6-(6-amino-5-(trifluoromethyl)pyridin-3-yl)imidazo[1,2-a]pyridin-2-yl)-4-(1H-imidazol-1-yl)benzamide] | > 6.00 | > 6.00 | > 5.00
25 | CC(=O)Nc1cn2cc(-c3cnc(N)c(Cl)c3)ccc2n1 [Example 188, N-(6-(6-amino-5-chloropyridin-3-yl)imidazo[1,2-a]pyridin-2-yl)acetamide] | > 6.00 | > 6.00 | > 5.00
26 | CC(=O)Nc1cn2cc(-c3cnc(N)c(C(F)(F)F)c3)cc(F)c2n1 [Example 190, N-(6-(6-amino-5-(trifluoromethyl)pyridin-3-yl)-8-fluoroimidazo [1,2-a]pyridin-2-yl)acetamide] | > 6.00 | > 6.00 | > 5.00
27 | C/C=C/c1c(NC(C)=O)nc2ccc(-c3cnc(N)c(C(F)(F)F)c3)cn12 [Example 193, (E)-N-(6-(6-amino-5-(trifluoromethyl)pyridin-3-yl)-3-(prop-1-enyl)imidazo[1,2-a]pyridin-2-yl)acetamide] | > 5.00 | > 6.00 | > 5.00
28 | CC(=O)Nc1cn2c(C)c(-c3cnc(N)c(C(F)(F)F)c3)ccc2n1 [Example 194, N-(6-(6-amino-5-(trifluoromethyl)pyridin-3-yl)-5-methylimidazo[1,2-a]pyridin-2-yl)acetamide] | > 5.00 | > 6.00 | > 5.00
29 | CC(=O)Nc1cn2cc(-c3cnc(N)c(C=O)c3)ccc2n1 [Example 195, N-(6-(6-amino-5-formylpyridin-3-yl)imidazo[1,2-a]pyridin-2-yl)acetamide] | > 6.00 | > 6.00 | > 5.00
30 | COCCOc1nc(-c2ccc3nc(NC(=O)COC)cn3c2)cnc1N [Example 196, N-(6-(5-amino-6-(2-methoxyethoxy)pyrazin-2-yl)imidazo[1,2-a]pyridin-2-yl)-2-methoxyacetamide] | > 6.00 | > 6.00 | > 5.00
31 | CC(=O)Nc1cn2cc(-c3cnc(N)c(/C=N/N(C)C)c3)ccc2n1 [Example 204, (E)-N-(6-(6-amino-5-((2,2-dimethylhy-drazono)methyl)pyridin-3-yl)imidazo[1,2-a]pyridin-2-yl)acetamide] | > 6.00 | > 6.00 | > 5.00
